Assay results published in ChEMBL document CHEMBL1154965, “3-(Arylsulfonyl)-1-(azacyclyl)-1H-indoles are 5-HT(6) receptor modulators” (Bioorg Med Chem Lett, 2010).

Key:
[1] = biological target: T1, 5-hydroxytryptamine receptor 6 (Homo sapiens, UniProt P50406); assay: Displacement of [3H]LSD from human 5-HT6 receptor expressed in human HeLa cells after 2 hrs; format: cell-based
[2] = biological target: T1, 5-hydroxytryptamine receptor 6; assay: Agonist activity at human 5-HT6 receptor expressed in human HeLa cells assessed as effect on 5HT-induced intracellular cAMP level after 10 mins by radioimmunoassay; format: functional, cell-based
[3] = biological target: T1, 5-hydroxytryptamine receptor 6; assay: Agonist activity at human 5-HT6 receptor expressed in human HeLa cells assessed as effect on 5HT-induced intracellular cAMP level after 10 mins by radioimmunoassay relative to serotonin; format: functional, cell-based
[4] = biological target: T1, 5-hydroxytryptamine receptor 6; assay: Antagonist activity at human 5-HT6 receptor expressed in human HeLa cells assessed as inhibition of 5HT-induced intracellular cAMP level after 10 mins by radioimmunoassay; format: functional, cell-based
[5] = biological target: T1, 5-hydroxytryptamine receptor 6; assay: Antagonist activity at human 5-HT6 receptor expressed in human HeLa cells assessed as inhibition of 5HT-induced intracellular cAMP level after 10 mins by radioimmunoassay relative to serotonin; format: functional, cell-based

T1 sequence (P50406 whole entry): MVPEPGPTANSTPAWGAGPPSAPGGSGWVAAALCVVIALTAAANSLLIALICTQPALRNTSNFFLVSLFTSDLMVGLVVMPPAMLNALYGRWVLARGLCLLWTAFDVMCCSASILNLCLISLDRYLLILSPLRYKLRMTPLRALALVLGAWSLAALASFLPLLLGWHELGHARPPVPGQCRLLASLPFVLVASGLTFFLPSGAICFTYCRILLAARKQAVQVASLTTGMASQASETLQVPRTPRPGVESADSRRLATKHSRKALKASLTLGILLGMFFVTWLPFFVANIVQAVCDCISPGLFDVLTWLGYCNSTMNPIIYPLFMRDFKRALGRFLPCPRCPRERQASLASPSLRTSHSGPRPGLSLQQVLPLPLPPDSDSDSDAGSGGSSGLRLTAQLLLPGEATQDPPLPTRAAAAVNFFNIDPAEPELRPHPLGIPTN

CN1CCC(n2cc(S(=O)(=O)c3cccc(F)c3)c3ccccc32)C1 (stereo not drawn)
Ki [1]: 3.5 nM
EC50 [2]: 398 nM
Emax [3]: 49%

CN1CCC(n2cc(S(=O)(=O)c3cccc4cccnc34)c3ccccc32)C1 (stereo not drawn)
Ki [1]: 2.8 nM
IC50 [4]: 76 nM
Imax [5]: 97%

O=S(=O)(c1cccc(Cl)c1)c1cn(C2CCNC2)c2ccccc12 (stereo not drawn)
Ki [1]: 3.2 nM
EC50 [2]: 125 nM
Emax [3]: 48%

COc1ccc2c(S(=O)(=O)c3cccc(Cl)c3)cn(C3CCNC3)c2c1 (stereo not drawn)
Ki [1]: 4.6 nM
IC50 [4]: 80 nM
Imax [5]: 100%

O=S(=O)(c1cccc(F)c1)c1cn(C2CCCNC2)c2ccc(F)cc12 (stereo not drawn)
IC50 [4]: 18 nM
Imax [5]: 85%

CN1CCCC(n2cc(S(=O)(=O)c3cccc4ccccc34)c3ccccc32)C1 (stereo not drawn)
Ki [1]: 7.1 nM
IC50 [4]: 107 nM
Imax [5]: 87%

O=S(=O)(c1cn(C2CCCNC2)c2ccccc12)c1cccc2cccnc12 (stereo not drawn)
Ki [1]: 5.6 nM
EC50 [2]: 592 nM
Emax [3]: 71%

COc1ccc2c(c1)c(S(=O)(=O)c1cccc(F)c1)cn2C1CCCNC1 (stereo not drawn)
Ki [1]: 10.7 nM
EC50 [2]: 73 nM
Emax [3]: 75%

O=S(=O)(c1cccc(F)c1)c1cn(C2CCNC2)c2cc(F)ccc12 (stereo not drawn)
Ki [1]: 18 nM

CCN1CCCC(n2cc(S(=O)(=O)c3ccccc3)c3ccccc32)C1 (stereo not drawn)
Ki [1]: 7.3 nM
EC50 [2]: 31 nM
Emax [3]: 52%

O=S(=O)(c1cccc(F)c1)c1cn(C2CCNC2)c2cc(Cl)ccc12 (stereo not drawn)
Ki [1]: 72 nM

O=S(=O)(c1cccc(F)c1)c1cn(C2CCNC2)c2ccc(F)cc12 (stereo not drawn)
Ki [1]: 9.6 nM
EC50 [2]: 38 nM
Emax [3]: 50%

O=S(=O)(c1ccccc1)c1cn(C2CCNC2)c2ccccc12 (stereo not drawn)
Ki [1]: 5 nM
EC50 [2]: 60 nM
Emax [3]: 70%

O=S(=O)(c1cccc(F)c1)c1cn(C2CCNC2)c2ccc(Cl)cc12 (stereo not drawn)
Ki [1]: 15 nM

O=S(=O)(c1cn(C2CCNC2)c2ccccc12)c1cccc2cccnc12 (stereo not drawn)
Ki [1]: 1.5 nM
IC50 [4]: 82 nM
Imax [5]: 64%

CN1CCC(n2cc(S(=O)(=O)c3cccc4ccccc34)c3ccccc32)C1 (stereo not drawn)
Ki [1]: 6 nM
IC50 [4]: 60 nM
Imax [5]: 98%

O=S(=O)(c1cccc2ccccc12)c1cn(C2CCNC2)c2ccccc12 (stereo not drawn)
Ki [1]: 23.3 nM
IC50 [4]: 107 nM
Imax [5]: 100%

O=S(=O)(c1ccccc1)c1cn(C2CCN(Cc3ccccc3)C2)c2ccccc12 (stereo not drawn)
Ki [1]: 113 nM

CN1CCC(n2cc(S(=O)(=O)c3cccc(Cl)c3)c3ccccc32)C1 (stereo not drawn)
Ki [1]: 1.3 nM
IC50 [4]: 17 nM
Imax [5]: 86%

O=S(=O)(c1ccccc1)c1cn(C2CCCNC2)c2ccccc12 (stereo not drawn)
EC50 [2]: 82 nM
Emax [3]: 99%

O=S(=O)(c1cccc(F)c1)c1cn(C2CCNC2)c2ccccc12 (stereo not drawn)
Ki [1]: 4.7 nM
EC50 [2]: 68 nM
Emax [3]: 38%

CCN1CCCC(n2cc(S(=O)(=O)c3cccc(F)c3)c3cc(OC)ccc32)C1 (stereo not drawn)
Ki [1]: 16 nM
EC50 [2]: 203 nM
Emax [3]: 50%

CN1CCC(n2cc(S(=O)(=O)c3cccc(F)c3)c3cc(F)ccc32)C1 (stereo not drawn)
Ki [1]: 5 nM
IC50 [4]: 94 nM
Imax [5]: 70%

O=S(=O)(c1cccc(F)c1)c1cn(C2CCNC2)c2cccc(F)c12 (stereo not drawn)
Ki [1]: 18 nM

O=S(=O)(c1cccc(F)c1)c1cn(C2CCCNC2)c2ccccc12 (stereo not drawn)
Ki [1]: 6 nM
EC50 [2]: 56 nM
Emax [3]: 78%
